Source: patent publication US11596613B2, “Compositions and methods for treating cancer” (UNIVERSITY OF IOWA RESEARCH FOUNDATION, priority 2015, dated 2023)

Tested on: A375 xenografts
Test: A375 xenografts in athymic nu/nu mice treated with PLX4720 diet and/or BSO in drinking water
Format: in vivo
Description: 2-Mercaptoethanol is a reducing agent that leads to reduction of disulphide bonds to produce thiols. […] The effect of eliminating GSH in vivo was tested by treating mice (Athymic nu/nu) bearing A375 xenografts with rodent diet (AIN-76A) containing PLX4720 ([…], 416 mg/kg of diet) alone and in combination with BSO (15 mM in drinking water). […] Tumor xenografts in mice treated with the AIN-76 diet mixed with PLX4720 were responsive initially, but approximately 80% of these tumors acquired resistance to BRAFi treatment alone within 140 days (i.e., 20% complete responses; FIG. 2). On the contrary, the combination of BSO with PLX4720 produced nearly 90% complete and durable tumor responses (FIG. 4). […] Tumor progression was defined as a 50% increase (approximately a two standard deviation increase) in tumor volume from study initiation.
Female athymic nu/nu mice (age six weeks) were purchased from Envigo (previously Harlan Laboratories) and housed in the Animal Care Facility at The University of Iowa (Iowa City, Iowa). All procedures were approved by The University of Iowa Institutional Animal Care and Use Committee. All mice were naïve to treatments at the time of xenograft. For each xenograft, 1-3×10^6 cells (451LuBR and A375) were implanted subcutaneously in a 1:1 suspension of Matrigel (Corning) and PBS (flank) using a 27-gauge needle. For all in vivo studies, the mice were randomly assigned to experimental groups post-implant. Animals developed tumors within 7-10 days post-implant. Initiation of treatments was standardized to the time that tumor volume ([(longest length)×(smallest length^2)]/2) reached 80-100 mm^3.
The dose and mode of delivery for PBA was determined by analyzing the pharmacokinetics C-14 labeled PBA in mice (FIG. 5). These drugs were administered alone and in combination depending on the experimental group. The mice were monitored for their state of health every day. Tumor volume and animal weights were measured twice per week. Mice were euthanized when the observed state of health reached the endpoint according to the approved IACUC protocol or when the tumor volume reached 1500 mm^3.
Statistics was conducted using the tumor sizes (mm^3) that were obtained periodically throughout the experiments, resulting in repeated measurements for each mouse. Linear mixed effects regression models were used to estimate and compare treatment group-specific tumor growth curves. Pairwise comparisons were performed to identify treatment group differences in the growth curves. The Kaplan-Meier method was used to estimate the survival curves, and group comparisons were made using the log rank test. Mice who developed ulcerations were censored at day of euthanasia. […]

SMILES	tumor growth rate (BSO 15 mM in drinking water, versus untreated controls)	GSH concentrations in tumor samples (mice treated with BSO vs controls)	complete (and durable) tumor responses (PLX4720 416 mg/kg of diet, alone or with BSO 15 mM in drinking water) [%]	tumors that acquired resistance to BRAFi treatment (within 140 days, PLX4720 416 mg/kg of AIN-76A diet)
CCCCS(=N)(=O)CCC(N)C(=O)O (stereo not shown) [BSO, buthionine sulfoximine]	No significant difference	significantly lower		
CCCS(=O)(=O)Nc1ccc(F)c(C(=O)c2c[nH]c3ncc(Cl)cc23)c1F [PLX4720]			20	approximately 80%
